Results from US12295936B2, “Immunomodulating urea azalides” (Zoetis Services LLC, priority 2020, dated 2025).
In brackets after ≈: the same amount, converted by molar mass. Entries after “also recorded” stand apart in the source; their conditions may differ. Read-outs that look alike come from different tables or passages of the source.

Columns and labels:
TNF-α = assay: LPS-stimulated whole bovine blood assay, MSD cytokine detection; format: cell-based; settings: for IC50: Bos taurus
[1] = system: E. coli and Salmonella isolates; assay: Ames mutagenicity test; format: cell-based; settings: 1-5000 μg/plate, plate incorporation method
Experimental: In an Ames mutagenicity test, Example H-91 (1-5000 μg/plate; using the plate incorporation method and a standard panel of bacterial (E. coli and Salmonella isolates) was negative (non-mutagenic).

M. haemolytica = assay: In-vitro MIC model (CLSI broth micro-dilution); settings: Mannheimia haemolytica
P. multocida = assay: In-vitro MIC model (CLSI broth micro-dilution); settings: Pasteurella multocida
H. somni = assay: In-vitro MIC model (CLSI broth micro-dilution)
IL-8 = IL-8 levels in cattle (natural infection and M. hemolytica challenge studies); format: in vivo; settings: over the course of a natural infection study; control animals increased 270%
Experimental: (§1) Intensive sample collection was conducted over a 96-hour period in a subset of cattle treated with Example H-91 (0.5 mg/kg) or H-11 (0.1 mg/kg) in the natural bovine infection studies. […] The compounds of the invention have shown an up-regulation of IL-36RA, which then binds to IL-36R limiting the pro-inflammatory response of IL-36. In addition, the IL-8 levels from one of the natural infection studies with Example H-91, increased 270% over the course of the study for control animals. In contrast, the IL-8 levels in animals dosed with Example H-91 decreased by about 15%.

CD163 = CD163 expression by flow cytometry, blood of treated/challenged cattle; settings: blood macrophages
IL-36RA = IL-36RA change during natural infection bovine studies; format: in vivo, cattle; settings: H-91 0.5 mg/kg, H-11 0.1 mg/kg; for IL-36RA concentration relative to the baseline concentration after the elevation: after roughly 8 hours; for increase in IL-36RA compared to baseline: within 1 hour, FIG. 5
Experimental: as §1

Lipophilicity (logP) = format: physicochemical
From the text: The lipophilicity of an organic compound can be described by a partition coefficient, log P, which can be defined as the ratio of the concentration of the unionized compound at equilibrium between organic and aqueous phases. Generally speaking, more lipophilic compounds are less soluble in aqueous media. A negative value for log P means the compound has a higher affinity for the aqueous phase (hydrophilic); when log P=0 the compound is equally partitioned between the lipid and aqueous phases; a positive value for log P denotes a higher concentration in the lipid phase (lipophilic). Lipophilicity is a major determining factor in a compound's absorption, distribution in the body, penetration across vital membranes and biological barriers, metabolism and excretion. The compounds of the invention are lipophilic (log P˜0.503 to 5.96) which aid in their transport and absorption into respiratory tissues, e.g., lungs.

[2] = pH dependent aqueous solubility; format: physicochemical
Experimental: In an aqueous solution, Example H-11 exists as an equilibrated mixture of two lactone isomers as shown above. The ratio is approximately 9:1 lactone A:B. The rate of equilibration depends on pH and temperature, with neutral pH giving faster equilibration, pH˜5-6 giving much slower equilibration, and higher temperatures resulting in faster equilibration. Equilibration occurs in under 1-hour at pH>6 and temperatures >60° C. H-11 isomerization is a 6 exo-Trig cyclization and is a favored reaction by Baldwin's Rules. The dominant isomer, lactone-A, is a 15-membered macrocyclic lactone, while the minor isomer, lactone-B, is a 13-membered macrocyclic lactone. […] Due to the pH dependent solubility of H-11, and other compounds of the invention, dissolution of an organic acid (e.g., citric acid) into water prior to adding the active agent (e.g., H-11) may be necessary to ensure complete dissolution, particularly for higher concentration solutions, thereby providing a solution with enough buffering capacity for dissolution.

LCN2 = LCN2 (Bos taurus, UniProt A0AAA9TIZ6); assay: Surface plasmon resonance (SPR) drug/target affinity; format: binding; settings: biologically relevant pH
From the text: (§2) In order to add further clarity to binding partner identification, surface plasma resonance (SPR) technology was used. […] These targets were unique to this drug class compared to gamithromycin, a macrolide antibiotic used in the treatment of BRD. Both targets fit the paradigm that the immunological mechanism of action is linked to the pathways that are both of key importance as being dysregulated in BRD and modulated by M9. LCN2 is expressed by neutrophils upon activation of toll-like receptors (TLRs) and is a component of the innate inflammatory response. […] Very little information exists to date on SLAMF9. It is a member of a family of signal adaptor proteins that is thought to lack signal transduction capabilities.
(§3) KD is the equilibrium dissociation constant that was used to present the drug/target affinity. The identified targets associated with drug were measured by surface plasmon resonance (SPR) to define the KD.

LPO = LPO (Bos taurus, UniProt P80025); assay: as above; format: binding
From the text: as §2, §3

NLRX1 = assay: as above; format: binding
From the text: as §2, §3

SLAMF9 = SLAMF9 (Bos taurus, UniProt E1BNF9); assay: as above; format: binding; settings: biologically relevant pH
From the text: as §2, §3

TLR4 = assay: as above; format: binding
From the text: as §2, §3

[3] = LPS-stimulated bovine whole blood, read-out: TNF-α (IC50 μM)
[4] = LPS-stimulated whole bovine blood, read-out: TNF-α IC50
[5] = read-out: MIC to the M. haemolytica challenge strain

LCN2, sequence (A0AAA9TIZ6 entry or part of it): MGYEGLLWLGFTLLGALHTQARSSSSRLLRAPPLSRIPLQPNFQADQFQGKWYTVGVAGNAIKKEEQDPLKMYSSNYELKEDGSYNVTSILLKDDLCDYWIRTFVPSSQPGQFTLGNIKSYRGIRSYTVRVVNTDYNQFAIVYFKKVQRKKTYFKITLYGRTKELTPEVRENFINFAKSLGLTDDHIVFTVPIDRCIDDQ
SLAMF9, sequence (E1BNF9 entry or part of it): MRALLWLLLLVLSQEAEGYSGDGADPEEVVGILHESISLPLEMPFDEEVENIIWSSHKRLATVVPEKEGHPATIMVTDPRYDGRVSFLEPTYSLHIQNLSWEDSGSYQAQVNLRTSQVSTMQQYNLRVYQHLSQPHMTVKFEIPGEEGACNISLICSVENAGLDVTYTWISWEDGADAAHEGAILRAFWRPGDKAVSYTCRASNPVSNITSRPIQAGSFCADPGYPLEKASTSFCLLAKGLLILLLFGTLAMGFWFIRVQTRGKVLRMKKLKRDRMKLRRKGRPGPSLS

Compound	IC50 (TNF-α; [3])	IC50 (TNF-α; [4])	Ames mutagenicity test [1]	MIC (M. haemolytica)	MIC (M. haemolytica; [5])	MIC (P. multocida)	MIC (H. somni; Histophilus somni)	CD163 expression in treated cattle (CD163)	IL-36RA concentration relative to the baseline concentration after the elevation (IL-36RA)	increase in IL-36RA compared to baseline (IL-36RA)	logP (Lipophilicity (logP))	further results
CCCNC[C@]1(O)[C@H](C)O[C@@H](O[C@H]2[C@H](C)[C@@H](O[C@@H]3O[C@H](C)C[C@H](N(C)C(=O)Nc4ccccc4)[C@H]3O)[C@](C)(O)C[C@@H](C)CN[C@H](C)[C@@H](O)[C@](C)(O)[C@@H](CC)OC(=O)[C@@H]2C)C[C@@]1(C)OC [Example H-91, 1-((2S,3R,4S,6R)-2-(((2R,3S,4R,5R,8R,10R,11R,12S,13S,14R)-2-ethyl-3,4,10-trihydroxy-13-(((2R,4R,5S,6S)-5-hydroxy-4-methoxy-4,6-dimethyl-5-((propylamino)methyl)tetrahydro-2H-pyran-2-yl)oxy)-3,5,8,10,12,14-hexamethyl-15-oxo-1-oxa-6-azacyclopentadecan-11-yl)oxy)-3-hydroxy-6-methyltetrahydro-2H-pyran-4-yl)-1-methyl-3-phenylurea]	85 µM	90 µM	negative; also recorded: non-mutagenic	> 256 µg/mL	> 256 µg/mL	> 256 µg/mL	> 64 µg/mL	suppressed; also recorded: reduction; also recorded: downregulated	−55%	about 275%	3.1	MIC (M. haemolytica; read-out: MIC against all M. haemolytica target pathogens tested): > 256 µg/mL; decrease of IL-8 levels (IL-8): about 15%
CCCNC[C@]1(O)[C@H](C)O[C@@H](O[C@H]2[C@H](C)[C@@H](O[C@@H]3O[C@H](C)C[C@H](N(C)C(=O)N(C)c4ccccc4)[C@H]3O)[C@](C)(O)C[C@@H](C)CN[C@H](C)[C@@H](O)[C@](C)(O)[C@@H](CC)OC(=O)[C@@H]2C)C[C@@]1(C)OC [Example H-11, 1-((2S,3R,4S,6R)-2-(((2R,3S,4R,5R,8R,10R,11R,12S,13S,14R)-2-ethyl-3,4,10-trihydroxy-13-(((2R,4R,5S,6S)-5-hydroxy-4-methoxy-4,6-dimethyl-5-((propylamino)methyl)tetrahydro-2H-pyran-2-yl)oxy)-3,5,8,10,12,14-hexamethyl-15-oxo-1-oxa-6-azacyclopentadecan-11-yl)oxy)-3-hydroxy-6-methyltetrahydro-2H-pyran-4-yl)-1,3-dimethyl-3-phenylurea]	8 µM	8 µM	non-mutagenic	> 64 µg/mL	–	> 64 µg/mL	> 64 µg/mL	reduced; also recorded: downregulated	−55%	about 50%	3.2	expression of TNF-α, LPS stimulated whole bovine blood (TNF-α; 4 independent studies with multiple blood donors, FIG. 4): dose dependent reduction; aqueous solubility ([2]; acidic pH): very soluble; aqueous solubility ([2]; as the pH approaches neutral conditions): lower solubility
CCCNC[C@]1(O)[C@H](C)O[C@@H](O[C@H]2[C@H](C)[C@@H](O[C@@H]3O[C@H](C)C[C@H](NC)[C@H]3O)[C@](C)(O)C[C@@H](C)CN[C@H](C)[C@@H](O)[C@](C)(O)[C@@H](CC)OC(=O)[C@@H]2C)C[C@@]1(C)OC [Example M9, (2R,3S,4R,5R,8R,10R,11R,12S,13S,14R)-2-ethyl-3,4,10-trihydroxy-13-(((2R,4R,5S,6S)-5-hydroxy-4-methoxy-4,6-dimethyl-5-((propylamino)methyl)-tetrahydro-2H-pyran-2-yl)oxy)-11-(((2S,3R,4S,6R)-3-hydroxy-6-methyl-4-(methylamino)tetrahydro-2H-pyran-2-yl)oxy)-3,5,8,10,12,14-hexamethyl-1-oxa-6-azacyclopentadecan-15-one, reference compound]	250 µM	~250 µM	–	–	> 64 µg/mL	–	–	suppressed; also recorded: mitigates; also recorded: downregulated	–	–	2.2	MIC50 (M. haemolytica): > 64 µg/mL; MIC90 (M. haemolytica): > 64 µg/mL; MIC (M. haemolytica; ATCC33396, read-out: Comparative MIC's, M. haemolytica ATCC 33396): 32 µg/mL (≈ 40.4 µM); MIC (M. haemolytica; read-out: Comparative MIC's, M. haemolytica 12726): 32 µg/mL (≈ 40.4 µM); MIC (M. haemolytica; read-out: Comparative MIC's, M. haemolytica 46571*): 32 µg/mL (≈ 40.4 µM); drug/target binding, LCN2 (LCN2): direct binding targets; Interaction type (LPO): Indirect; drug/target binding, NLRX1 (NLRX1): Indirect; drug/target binding, SLAMF9 (SLAMF9): direct binding targets; Interaction KD (M) (TLR4): Indirect; MIC50 (P. multocida): 16 µg/mL (≈ 20.2 µM); MIC90 (P. multocida): > 64 µg/mL; MIC (P. multocida; ATCC43137, read-out: Comparative MIC's, P. multocida ATCC 43137): 16 µg/mL (≈ 20.2 µM); MIC Range (H. somni; H. somni (25) lung isolates at necropsy, natural BRD study): 8 to 64 µg/mL; MIC50 (H. somni; Histophilus somni): 32 µg/mL (≈ 40.4 µM); MIC90 (H. somni; Histophilus somni): 32 µg/mL (≈ 40.4 µM)
